Measured values: paper PMC7872314, “Modeling Bioavailable Concentrations in Zebrafish Cell Lines and Embryos Increases the Correlation of Toxicity Potencies across Test Systems” (Environmental Science & Technology, 2020)

What was measured:
[1] = ref Comptox, PubChem or DrugBank; cited from earlier work
[2] = tested on: zebrafish embryos; parameters: method as in earlier work; conditions: nominal, cited from earlier work
[3] = tested on: rat cardiomyoblast cells vs fish / zebrafish embryos; assay: Potency ratios of the Rodrigues et al. data; conditions: bioavailable concentrations; embryo data chronic exposure 35 dpf

Row | SMILES | logKow [1] | pKa (Strongest Basic) [1] | other results
1 | CCNc1nc(Cl)nc(NC(C)C)n1 [Atrazine] | 2.61 | 1.6 | 
2 | CCOP(=S)(OCC)Oc1nc(Cl)c(Cl)cc1Cl [Chlorpyrifos] | 4.96 | -4.2 | Water Solubility [1]: 1.4 µg/mL
3 | CCOP(=S)(OCC)Oc1cc(C)nc(C(C)C)n1 [Diazinon] | 3.81 | 4.2 | 
4 | COP(=O)(OC)OC=C(Cl)Cl [Dichlorvos] | 1.43 |  | 
5 | COCC(=O)Nc1cc(Sc2ccccc2)ccc1N/C(=N\C(=O)OC)NC(=O)OC [Febantel, febantel] |  |  | EC50 ([2]; 144 hpf, converted): 761 nM; logEC50 144 hpf ([2]; log10): -6.118 M
6 | COP(=S)(OC)Oc1ccc([N+](=O)[O-])c(C)c1 [Fenitrothion] | 3.3 |  | 
7 | Cl[C@H]1[C@H](Cl)[C@@H](Cl)[C@@H](Cl)[C@H](Cl)[C@H]1Cl [Lindane] | 3.72 |  | Water Solubility [1]: 7.3 µg/mL; potency ratio (Rodrigues et al. data) [3]: 13.6
8 | CC1(C)C(C=C(Cl)Cl)C1C(=O)OCc1cccc(Oc2ccccc2)c1 (centres unmarked) [Permethrin] | 6.5 | -3.7 | 
9 | CNC(=O)Oc1ccccc1OC(C)C [Propoxur] | 1.52 | -4.9 | pKa (Strongest Acidic) [1]: 14.8
10 | CCNc1nc(Cl)nc(NC(C)(C)C)n1 [Terbuthylazine] | 3.21 | 2 | 
11 | c1ccc2[nH]c(-c3cscn3)nc2c1 [Thiabendazole] | 2.47 | 4.6 | 
